Measurements reported in patent publication US10344019B2 (priority 2010, dated 2019).
Like-named read-outs stand apart in the source and are kept apart here.

Experiments:
Format in all cases: cell-based
[1] = tested on: HCV 2a Rluc cells (NS5A chimeric genotype 2a JFH-1 replicon with genotype 2a J6 strain NS5A gene, M31 present); experiment: HCV replicon reporter assay, genotype 2a J6 (M31 present); settings: Hepatitis C virus, read-out: 2a J6
In short: (§1)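 Replicons used: genotype 1b Con1, 1a H77, 2a JFH-1, and a 2a JFH-1 chimera with J6-strain NS5A (M31 present), all dicistronic.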

[2] = tested on: HCV 2b Rluc cells (NS5A chimeric genotype 2a JFH-1 replicon with genotype 2b MD2b-1 NS5A gene, M31 present); experiment: microbe, parasite or virus in culture; settings: Hepatitis C virus, read-out: 2b
In short: (§2)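 Replicon cells stably carrying the listed RLuc-encoding dicistronic replicons were seeded and treated with DMSO serial dilutions of compound (10 mM stocks) diluted into culture medium. After 72 h, cells were lysed and Renilla luciferase activity measured. EC50 was derived by non-linear regression.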

[3] = tested on: HCV 3a RLuc cells (NS5A chimeric genotype 1b Con1 replicon with consensus genotype 3a NS5A gene); experiment: microbe, parasite or virus in culture
In short: as §2

[4] = tested on: HCV 1b RLuc cells (dicistronic genotype 1b Con1 replicon, RLuc reporter); experiment: microbe, parasite or virus in culture
In short: as §1

[5] = tested on: HCV 2a JFH-1 Rluc cells (dicistronic genotype 2a JFH-1 replicon, RLuc reporter); experiment: microbe, parasite or virus in culture; settings: read-out: 2a JFH
In short: as §1

[6] = tested on: HCV 4a Rluc cells (NS5A chimeric genotype 1b Con1 replicon with genotype 4a NS5A gene); experiment: microbe, parasite or virus in culture; settings: Hepatitis C virus, read-out: 4a
In short: as §2

[7] = tested on: HCV 1a RLuc cells (dicistronic genotype 1a H77 replicon, RLuc reporter); experiment: microbe, parasite or virus in culture; settings: read-out: 1a
In short: as §1

[8] = Hepatitis C virus, read-out: 3a, Table 1, genotype 3a NS5A chimeric replicon
[9] = Hepatitis C virus, 72 h, read-out: 1b (nM)
[10] = Hepatitis C virus, 72 h, Table 1, genotype 2a JFH-1 replicon, 72 hours
[11] = Hepatitis C virus, 72 h, Table 1, genotype 1a H77 replicon, 72 hours
[12] = Hepatitis C virus, read-out: 3a, genotype 3a replicon
[13] = Hepatitis C virus, genotype 2a JFH-1 replicon
[14] = Hepatitis C virus, genotype 1a replicon

Row | SMILES | EC50 [1] | EC50 [2] | EC50 [3, 8] | EC50 [4, 9] | EC50 [5, 10] | EC50 [6] | EC50 [7, 11] | further results
1 | COC(=O)N[C@H](C(=O)N1CCC[C@H]1c1ncc(-c2ccc3c4c(ccc3c2)-c2ccc(-c3cnc([C@@H]5CCCN5C(=O)[C@H](NC(=O)OC)c5ccccc5)[nH]3)cc2CO4)[nH]1)C(C)C [Example 1] | > 44 nM | > 44 nM | 0.001 to 0.99 nM | 0.008 nM | 0.001 to 0.999 nM | 0.001 to 0.99 nM | 0.001 to 0.999 nM | 
2 | COC(=O)N[C@H](C(=O)N1CCC[C@H]1c1ncc(-c2ccc3c(c2)COc2c-3ccc3cc(-c4cnc([C@@H]5CCCN5C(=O)[C@H](NC(=O)OC)c5ccccc5)[nH]4)ccc23)[nH]1)C(C)C [Example 2] | > 44 nM | > 44 nM | 0.001 to 0.99 nM | 0.005 nM | 0.001 to 0.999 nM | 0.001 to 0.99 nM | 0.001 to 0.999 nM | 
3 | COC(=O)N[C@H](C(=O)N1CCC[C@H]1c1ncc(-c2ccc3c4c(ccc3c2)-c2ccc(-c3cnc([C@@H]5CCCN5C(=O)[C@@H](NC(=O)OC)C5CCOCC5)[nH]3)cc2CO4)[nH]1)C(C)C [Example 8] | > 44 nM | > 44 nM | 1 to 4.99 nM | 0.006 nM | 0.001 to 0.999 nM | 0.001 to 0.99 nM | 0.001 to 0.999 nM | 
4 | COC(=O)N[C@H](C(=O)N1CCC[C@H]1c1ncc(-c2cc3c4c(c2)OCc2cc(-c5cnc([C@@H]6CCCN6C(=O)[C@@H](NC(=O)OC)C(C)C)[nH]5)cc(c2-4)OC3)[nH]1)C(C)C [Example 9] | > 44 nM | 1 to 44 nM | 0.001 to 0.99 nM | 0.022 nM | 0.001 to 0.999 nM | 0.001 to 0.99 nM | 0.001 to 0.999 nM | 
5 | CC[C@H](NC(=O)OC)C(=O)N1CCC[C@H]1c1ncc(-c2ccc3c4c(ccc3c2)-c2ccc(-c3cnc([C@@H]5CCCN5C(=O)[C@H](NC(=O)OC)c5ccccc5)[nH]3)cc2CO4)[nH]1 [Example 12] | > 44 nM | > 44 nM | 0.001 to 0.99 nM | 0.008 nM | 0.001 to 0.999 nM | 0.001 to 0.99 nM | 0.001 to 0.999 nM | 
6 | COC(=O)N[C@H](C(=O)N1CCC[C@H]1c1ncc(-c2ccc3c4c(ccc3c2)-c2ccc(-c3cnc([C@@H]5CCCN5C(=O)[C@H](NC(=O)OC)c5ccccc5)[nH]3)cc2CO4)[nH]1)C1CCOCC1 [Example 13] | 1 to 44 nM | 0.001 to 0.999 nM | 0.001 to 0.99 nM | 0.015 nM | 0.001 to 0.999 nM | 0.001 to 0.99 nM | 0.001 to 0.999 nM | 
7 | COC(=O)N[C@H](C(=O)N1CCC[C@H]1c1ncc(-c2ccc3c4c(ccc3c2)-c2ccc(-c3cnc([C@@H]5CCCN5C(=O)[C@H](NC(=O)OC)c5ccccc5)[nH]3)cc2CO4)[nH]1)[C@@H](C)OC [Example 16] | 1 to 44 nM | 1 to 44 nM | 0.001 to 0.99 nM | 0.011 nM | 0.001 to 0.999 nM | 0.001 to 0.99 nM | 0.001 to 0.999 nM | 
8 | COC(=O)N[C@H](C(=O)N1CCC[C@H]1c1ncc(-c2ccc3c4ccc(-c5cnc([C@@H]6CCCN6C(=O)[C@@H](NC(=O)OC)C(C)C)[nH]5)cc4c4ccccc4c3c2)[nH]1)C(C)C [Example 22] | > 44 nM | > 44 nM | 0.001 to 0.99 nM | 0.005 nM | 0.001 to 0.999 nM | 0.001 to 0.99 nM | 0.001 to 0.999 nM | 
9 | COC(=O)N[C@H](C(=O)N1CCC[C@H]1c1ncc(-c2cc3c4c(c2)C(=O)c2cc(-c5cnc([C@@H]6CCCN6C(=O)[C@@H](NC(=O)OC)C(C)C)[nH]5)cc(c2-4)OC3)[nH]1)C(C)C [Example 24] | > 44 nM | > 44 nM | 0.001 to 0.99 nM | 0.013 nM | 0.001 to 0.999 nM | 0.001 to 0.99 nM | 0.001 to 0.999 nM | 
10 | COC(=O)N[C@H](C(=O)N1CCC[C@H]1c1ncc(-c2ccc3cc(-c4ccc(-c5cnc([C@@H]6CCCN6C(=O)[C@H](NC(=O)OC)c6ccccc6)[nH]5)cc4)ccc3c2)[nH]1)C(C)C [Example 26] | 1 to 44 nM | 1 to 44 nM |  |  |  | 0.001 to 0.99 nM |  | EC50 ([3]; read-out: 3a, Table 2, genotype 3a NS5A chimeric replicon): 0.001 to 0.99 nM; EC50 ([4]; read-out: 1b): 0.012 nM; EC50 ([5]; Table 2, genotype 2a JFH-1 replicon, 72 hours): 0.001 to 0.999 nM; EC50 ([7]; Table 2, genotype 1a H77 replicon, 72 hours): 0.001 to 0.999 nM
11 | COC(=O)N[C@H](C(=O)N1CCC[C@H]1c1nc2ccc3cc(-c4ccc5c(ccc6nc([C@@H]7[C@H]8CC[C@H](C8)N7C(=O)[C@@H](NC(=O)OC)C7CCOCC7)[nH]c65)c4)ccc3c2[nH]1)C(C)C [Example 95] | 0.001 to 0.999 nM | 1 to 44 nM |  | 0.028 nM |  | 0.001 to 0.99 nM |  | EC50 ([3]; Hepatitis C virus, read-out: 3a, Table 2, genotype 3a NS5A chimeric replicon): 0.001 to 0.99 nM; EC50 ([5]; Hepatitis C virus, 72 h, Table 2, genotype 2a JFH-1 replicon, 72 hours): 0.001 to 0.999 nM; EC50 ([7]; Hepatitis C virus, 72 h, Table 2, genotype 1a H77 replicon, 72 hours): 0.001 to 0.999 nM
12 | COC(=O)N[C@H](C(=O)N1CCC[C@H]1c1ncc(-c2ccc3cc(-c4ccc5c(c4)CCc4nc([C@@H]6CCCN6C(=O)[C@@H](NC(=O)OC)C(C)C)[nH]c4-5)ccc3c2)[nH]1)C(C)C [Example 114] | > 44 nM | > 44 nM |  |  |  | 0.001 to 0.99 nM |  | EC50 ([3]; Hepatitis C virus, read-out: 3a, genotype 3a NS5A chimeric 1b Con1 replicon): 1 to 4.99 nM; EC50 ([4]; Hepatitis C virus, read-out: 1b (nM)): 0.011 nM; EC50 ([5]; Hepatitis C virus, genotype 2a JFH-1 replicon, RLuc reporter): 1 to 44 nM; EC50 ([7]; Hepatitis C virus, genotype 1a H77 replicon, RLuc reporter): 0.001 to 0.999 nM
13 | O=C([C@H](Nc1ncccn1)c1ccccc1)N1CCC[C@H]1c1ncc(-c2cc3c4c(c2)OCc2cc(-c5cnc([C@@H]6CCCN6C(=O)[C@H](Nc6ncccn6)c6ccccc6)[nH]5)cc(c2-4)OC3)[nH]1 [Example 463] | > 44 nM | > 44 nM |  |  |  | > 5 nM |  | EC50 [3, 12]: 1 to 4.99 nM; EC50 [5, 13]: 1 to 44 nM; EC50 [7, 14]: 1 to 44 nM
14 | CN1CCN(C(=O)N[C@@H](C(=O)N2CCC[C@H]2c2ncc(-c3cc4c5c(c3)OCc3cc(-c6cnc([C@@H]7CCCN7C(=O)[C@H](NC(=O)N7CCN(C)CC7)c7ccccc7)[nH]6)cc(c3-5)OC4)[nH]2)c2ccccc2)CC1 [Example 464] | 1 to 44 nM | > 44 nM |  |  |  | > 5 nM |  | EC50 [3, 12]: 1 to 4.99 nM; EC50 [5, 13]: 1 to 44 nM; EC50 [7, 14]: > 44 nM
15 | CN(C)CCC(=O)N[C@@H](C(=O)N1CCC[C@H]1c1ncc(-c2cc3c4c(c2)OCc2cc(-c5cnc([C@@H]6CCCN6C(=O)[C@H](NC(=O)CCN(C)C)c6ccccc6)[nH]5)cc(c2-4)OC3)[nH]1)c1ccccc1 [Example 467] | > 44 nM | > 44 nM |  |  |  | > 5 nM |  | EC50 [3, 12]: > 5 nM; EC50 [5, 13]: > 44 nM; EC50 [7, 14]: > 44 nM
16 | CC[C@H](C)[C@H](NC(=O)OC)C(=O)N1C[C@@H](COC)C[C@H]1c1ncc(-c2ccc3c(c2)COc2cc4c(ccc5nc([C@@H]6C[C@H](COC)CN6C(=O)[C@@H](NC(=O)OC)[C@@H](C)CC)[nH]c54)cc2-3)[nH]1 [Example 580] | 0.001 to 0.999 nM | 0.001 to 0.999 nM |  |  |  | 0.001 to 0.99 nM |  | EC50 ([3]; Hepatitis C virus, read-out: 3a, genotype 3a NS5A chimeric replicon): 0.001 to 0.99 nM; EC50 ([5]; Hepatitis C virus, genotype 2a JFH-1 RLuc replicon): 0.001 to 0.999 nM; EC50 ([7]; Hepatitis C virus, genotype 1a H77 RLuc replicon): 0.001 to 0.999 nM
